Reference: US20250082656A1, “DOSAGE REGIMENS FOR TREATMENT OF DENGUE INFECTION” (Atea Pharmaceuticals, Inc., priority 2022, published 2025)

How the values were obtained:
DENV3 NS5 = DENV3 NS5 (Dengue virus type 3, UniProt Q6YMS4); test: Nucleotide analogue incorporation / discrimination assay, DENV3 NS5; assay type: biochemical; conditions: GTP for AT-9010 and AT-9002, UTP for SOF-TP
Method: The chain-terminating efficiency of Compound 5 was measured in competitive nucleotide incorporation assays using all four DENV serotypes. […] In comparison, sofosbuvir triphosphate is incorporated into the RNA less than 1 time for every 100 UTP (native uridine triphosphate) incorporations.
Measurements and quantitations were as in FIG. 19B.
DENV NS5 was pre-incubated with the annealed P10/T20 RNA in an assembly buffer containing 20 mM HEPES pH 7.5, 10% glycerol, 5 mM MgCl2, and 5 mM DTT for 10 min at 30° C. to create an active RNA elongation complex.
Reactions were started by adding AT-9010 with either all four NTPs or UTP, ATP, and CTP only.
Single nucleotide incorporation was tested as follows. Reactions were started by adding the corresponding NTP or analogue. Final concentrations were 1 μM NS5, 0.25 μM P10/T20, 100 μM NTP or analogue in a final buffer containing 20 mM HEPES pH 7.5, 15% glycerol, 5 mM MgCl2, and 5 mM DTT.
Reactions were quenched at the designated time points in 3× volume FBD stop solution (formamide, 10 mM EDTA) and analyzed on 20% acrylamide-bisacrylamide (19:1) […] sequencing gels. RNA products were visualized using a Typhoon FluorImager then analyzed and quantified using ImageQuant software.

DENV2 NS5MTase protein = DENV2 NS5MTase protein (Dengue virus type 2, UniProt P14340); test: MTase activity filter-binding assay (FBA); assay type: biochemical; conditions: 30° C., 30 min, read-out: IC50 against the MTase domain
Method: A) Dose-response determination using a filter binding assay (FBA). Reactions were incubated at 30° C. during 30 min and the enzymatic activity was determined using FBA as described in Example 33. […] Interacting residues are labelled and shown as sticks. E) Structural comparison of the position of a GTP (pink) and AT9010 (light brown) bound in the Cap binding site. Cap binding site structures belong to DENV2 (in pink—PDB 2P1D)) and DENV3 (in light brown) MTases and are conserved.
The transfer of tritiated methyl from [3H]-SAM onto RNA substrate was monitored by filter-binding assay (FBA), performed according to the method described previously (Paesen et al., 2015). […] FBA was carried out in reaction mixture [40 mM Tris-HCl (pH 8.0), 1 mM DTT, 2 μM SAM and 0.1 μM 3H-SAM (Perkin Elmer)] in the presence of 0.7 μM mGpppAC4 synthetic RNA and DENV2 NS5MTase protein (500 nM). The enzyme was first mixed with the compound (0.5 to 1000 μM) suspended in water before the addition of RNA substrate and SAM and then incubated at 30° C. Reaction mixtures were stopped after 30 min by their 10-fold dilution in ice-cold water. […] They were soaked with scintillation fluid (Perkin Elmer), and 3H-methyl transfer to the RNA substrates was determined using a Wallac MicroBeta TriLux Liquid Scintillation Counter (Perkin Elmer). […]

DENV1 RdRp domain = test: Thermal shift assay, DENV1 RdRp domain; conditions: RdRp domain DENV1, 100 μM compound
DENV4 RdRp domain = test: Thermal shift assay, DENV4 RdRp domain; conditions: RdRp domain DENV4, 100 μM compound
DENV1 MTase domain = DENV1 MTase domain (Dengue virus type 1, UniProt P17763); test: Thermal shift assay, DENV1 MTase domain; conditions: read-out: ΔTM
Dengue-3 (DENV-3) = test: Neutral red assay of virus-induced CPE, DENV-3; assay type: cell-based; conditions: DENV3, Huh-7
West Nile (WNV) [1] = test: Neutral red assay of virus-induced CPE, WNV; assay type: cell-based; conditions: Kern 515, WNo2, Huh-7, neutral red assay
West Nile (WNV) [2] = test: microbe, parasite or virus in culture; assay type: cell-based; conditions: Kern 515, WNo2, Huh-7, VYR assay
Usutu = test: microbe, parasite or virus in culture; assay type: cell-based; conditions: TC-508, Huh-7, VYR assay
Chikungunya = test: Antiviral specificity panel, Chikungunya; assay type: cell-based; conditions: Chikungunya virus; RNA virus, Huh-7
Influenza A and B = test: Antiviral specificity panel, Influenza A and B; assay type: cell-based; conditions: Influenza A virus; RNA virus, MDCK
[3] = system: Respiratory syncytial virus; test: Antiviral specificity panel, RSV; assay type: cell-based; conditions: human respiratory syncytial virus, HEp-2; RNA virus, HEp2
Rhinovirus = test: Antiviral specificity panel, Rhinovirus; assay type: cell-based; conditions: Enterovirus; RNA virus, H1-HeLa
in vitro = conditions: hamster
clinical = conditions: both, human, in vivo, steady-state, human plasma, mean±SD; for AUC: AUCtau
flaviviruses = test: organism not typed; conditions: 144 h, read-out: concentration to achieve 50% inhibition (EC50) of the virus-induced cytopathic effect (CPE), range over 11 strains of 7 flaviviruses in 3 cell types, 3- to 6-day incubation
[4] = Cytotoxicity in uninfected Huh-7 cells; conditions: human, Huh-7 cells, uninfected
Huh-7 cells = test: Cytotoxicity in uninfected Huh-7 cells; conditions: Table 1A, Huh-7 incubated without virus, parallel to the virus of the line; highest concentration tested
[5] = Bone marrow progenitor cell assay, erythroid (E); conditions: human, erythroid (E) human bone marrow progenitor cells
[6] = Bone marrow progenitor cell assay, granulocyte macrophage (GM); conditions: human

DENV1 MTase domain, sequence (P17763 2495-2756): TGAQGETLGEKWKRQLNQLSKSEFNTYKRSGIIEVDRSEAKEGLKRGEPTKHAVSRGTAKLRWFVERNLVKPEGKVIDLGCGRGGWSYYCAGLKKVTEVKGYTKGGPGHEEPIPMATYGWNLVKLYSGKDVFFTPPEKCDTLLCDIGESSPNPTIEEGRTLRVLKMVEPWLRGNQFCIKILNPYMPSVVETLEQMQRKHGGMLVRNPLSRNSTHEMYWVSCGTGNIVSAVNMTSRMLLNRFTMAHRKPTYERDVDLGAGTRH
DENV3 NS5, sequence (Q6YMS4 2491-3390): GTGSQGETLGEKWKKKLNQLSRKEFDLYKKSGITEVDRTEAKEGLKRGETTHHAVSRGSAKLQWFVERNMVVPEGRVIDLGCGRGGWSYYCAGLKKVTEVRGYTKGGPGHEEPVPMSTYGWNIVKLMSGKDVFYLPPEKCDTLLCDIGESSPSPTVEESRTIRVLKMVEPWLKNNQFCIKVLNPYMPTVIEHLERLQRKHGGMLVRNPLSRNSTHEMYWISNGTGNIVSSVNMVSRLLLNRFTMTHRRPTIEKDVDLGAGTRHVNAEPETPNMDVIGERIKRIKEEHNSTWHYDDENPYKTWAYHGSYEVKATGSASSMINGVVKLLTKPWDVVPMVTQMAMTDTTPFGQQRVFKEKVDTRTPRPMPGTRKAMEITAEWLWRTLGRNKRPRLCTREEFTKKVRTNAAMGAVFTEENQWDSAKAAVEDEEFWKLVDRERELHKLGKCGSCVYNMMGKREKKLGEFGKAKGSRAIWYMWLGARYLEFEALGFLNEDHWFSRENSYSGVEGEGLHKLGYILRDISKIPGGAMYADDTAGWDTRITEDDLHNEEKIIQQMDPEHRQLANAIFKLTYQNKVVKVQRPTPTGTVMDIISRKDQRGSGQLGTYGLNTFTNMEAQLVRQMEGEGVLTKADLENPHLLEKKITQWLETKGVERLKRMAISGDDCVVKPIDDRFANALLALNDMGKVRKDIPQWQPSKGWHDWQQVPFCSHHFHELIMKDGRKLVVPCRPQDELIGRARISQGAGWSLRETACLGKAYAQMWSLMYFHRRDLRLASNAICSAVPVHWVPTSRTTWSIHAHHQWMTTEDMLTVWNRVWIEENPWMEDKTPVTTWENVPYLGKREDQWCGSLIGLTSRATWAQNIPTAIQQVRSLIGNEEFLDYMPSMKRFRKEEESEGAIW
DENV2 NS5MTase protein, sequence (P14340 2492-2787 limits assumed): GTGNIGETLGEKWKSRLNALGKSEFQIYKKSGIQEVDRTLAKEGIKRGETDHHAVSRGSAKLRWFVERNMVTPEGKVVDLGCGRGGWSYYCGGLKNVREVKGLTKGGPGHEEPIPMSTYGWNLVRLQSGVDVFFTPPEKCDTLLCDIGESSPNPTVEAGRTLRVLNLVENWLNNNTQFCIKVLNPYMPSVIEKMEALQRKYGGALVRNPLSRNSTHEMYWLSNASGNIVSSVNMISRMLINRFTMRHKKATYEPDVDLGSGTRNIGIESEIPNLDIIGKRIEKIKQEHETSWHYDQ

With `C[C@@]1(F)[C@H](O)[C@@H](COP(=O)(O)OP(=O)(O)OP(=O)(O)O)O[C@H]1n1cnc2c(=O)[nH]c(N)nc21` [Compound 5] the “Preference (discrimination) native nucleotide > analogue” value (DENV3 NS5) was 11.6 ± 1.3, the IC50 (DENV2 NS5MTase protein) was 29.6 µM and the ΔTM (DENV1 RdRp domain) was 5.6±0.1 °C. For the same compound, the ΔTM (DENV4 RdRp domain) was 4.1 ± 0.1 °C and the ΔTm at 100 µM (DENV1 MTase domain) was 3.8 ± 0.1 °C.
`CNc1nc(N)nc2c1ncn2[C@@H]1O[C@H](CO[P@](=O)(N[C@@H](C)C(=O)OC(C)C)Oc2ccccc2)[C@@H](O)[C@@]1(C)F` [Compound 1, isopropyl ((R)-(((2R,3R,4R,5R)-5-(2-amino-6-(methylamino)-9H-purin-9-yl)-4-fluoro-3-hydroxy-4-methyltetrahydrofuran-2-yl)methoxy)(phenoxy)phosphoryl)-L-alaninate] gave an EC50 (Dengue-3 (DENV-3)) of 0.77 µM, an EC50 (West Nile (WNV) [1]) of 1.41 µM and an EC90 (West Nile (WNV) [2]) of 0.43 µM. The EC90 (Usutu) was 0.72 µM, the EC50 (Chikungunya) was 54.2 µM and the EC50 (Influenza A and B) was > 100 µM. The EC50 [3] was > 100 µM, the EC50 (Rhinovirus) was > 100 µM and the CC50 (in vitro) was > 170 µM. It also gave an AUC (clinical; 750 mg, Compound 2 750 mg BID) of 2610 ± 640 ng·h/mL, an AUC (clinical; 750 mg, Compound 2 750 mg TID) of 2540 ± 572 ng·h/mL and a Cmax (clinical; 750 mg, Compound 2 750 mg BID) of 3490 ± 1280 ng/mL. The Cmax (clinical; 750 mg, Compound 2 750 mg TID) was 3010 ± 754 ng/mL, the AUC (clinical; 1000 mg, Compound 2 1000 mg QD) was 3090 ± 1530 ng·h/mL and the Cmax (clinical; 1000 mg, Compound 2 1000 mg QD) was 3810 ± 1670 ng/mL. The EC50 (flaviviruses) was 0.19 to 1.41 µM, the CC50 [4] was > 100 µM and the CC50 (Huh-7 cells) was > 170 µM. For the same compound, the CC50 at 14 days [5] was > 100 µM and the CC50 at 14 days [6] was > 100 µM.
